Test [1] is filed under the species Rattus norvegicus. Briefly: Maximal activity to stimulate lipogenisis in rat adipocytes compared to the maximal effect of insulin. The format is functional.
The species entered for test [2] is Rattus norvegicus. As to the kind of experiment: Value of Kd measured against rat Adipocytes. The format is functional, organism-based.

By Kd is commonly meant a measure of binding affinity in units of concentration.

For the compound `NC1[C@H](O[C@H]2C(O)C(O)[C@@H](O)C3OP(=O)(O)O[C@H]32)OC(CO)[C@@H](O)[C@@H]1O` (some centres undefined), the Activity in test [1] amounted to 24%. In test [2], this compound came in with a Kd of 15.9 µM.

Compound `Nc1c(S(=O)(=O)[O-])cc2c3c(cc(S(=O)(=O)[O-])cc13)C(=O)N(CCNC(=O)CSC[C@@H]1O[C@@H](O[C@H]3[C@H](O)[C@H](O)[C@@H](O)[C@@H]4OP(=O)(O)O[C@@H]34)[C@@H](N)[C@@H](O)[C@@H]1O)C2=O.[K+].[K+]` returned an Activity in test [1] of 47%. In test [2], the Kd was 12 µM.

The values are drawn from ChEMBL document CHEMBL1143525, “A fluorescent inositol phosphate glycan stimulates lipogenesis in rat adipocytes by extracellular activation alone” (Bioorg Med Chem Lett, 2005).
